These results are taken from ChEMBL document CHEMBL1140374, “2-n-Butyl-9-methyl-8-[1,2,3]triazol-2-yl-9H-purin-6-ylamine and analogues as A2A adenosine receptor antagonists. Design, synthesis, and pharmacological characterization” (J Med Chem, 2005).

Bounds are passed on as bounds.

The target of one test is T1, Adenosine receptor A1 (Homo sapiens, UniProt P30542).
T1 sequence (P30542 whole entry): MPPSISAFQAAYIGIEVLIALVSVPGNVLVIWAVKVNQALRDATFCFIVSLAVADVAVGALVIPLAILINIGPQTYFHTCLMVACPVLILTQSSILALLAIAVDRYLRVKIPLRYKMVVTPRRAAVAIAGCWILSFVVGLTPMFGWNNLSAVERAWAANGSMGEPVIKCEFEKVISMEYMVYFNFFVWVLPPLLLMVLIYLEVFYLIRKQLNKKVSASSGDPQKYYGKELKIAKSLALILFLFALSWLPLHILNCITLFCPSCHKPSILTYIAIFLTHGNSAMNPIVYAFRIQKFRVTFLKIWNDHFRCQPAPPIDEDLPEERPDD
Nature of the test: biochemical.

The next test concerns the target Adenosine receptor A2a (Homo sapiens, UniProt P29274). In words: biochemical.
Another test concerns the target T2, Adenosine receptor A2b (Homo sapiens, UniProt P29275).
T2 sequence (P29275 whole entry): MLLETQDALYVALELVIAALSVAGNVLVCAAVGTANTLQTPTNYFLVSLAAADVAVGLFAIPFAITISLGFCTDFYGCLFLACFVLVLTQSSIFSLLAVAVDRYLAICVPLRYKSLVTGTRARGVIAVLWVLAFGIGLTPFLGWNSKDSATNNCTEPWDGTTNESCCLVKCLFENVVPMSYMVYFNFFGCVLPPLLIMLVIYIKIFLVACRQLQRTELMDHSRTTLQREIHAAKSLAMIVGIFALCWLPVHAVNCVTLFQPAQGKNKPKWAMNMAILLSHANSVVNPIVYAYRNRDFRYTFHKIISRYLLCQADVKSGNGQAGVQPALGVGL
Nature of the test: Binding affinity towards human Adenosine A2b receptor expressed in HEK293 cells using 5 nM [3H]DPCPX. The test is classed as cell-based.

A short description of test [1]: (§1) Percent inhibition against P2Y Purinoceptor at 1 uM. Also on record: species or system Homo sapiens.
For test [2], the target named is T3, Glutamate [NMDA] receptor (Homo sapiens) (UniProt Q05586+Q12879+Q13224+O15399+O60391+Q14957+Q8TCU5). In words: Percent inhibition against PCP receptor at 1 uM. The test is classed as protein-complex assay.
Test [3] concerns the target D(3) dopamine receptor (Homo sapiens) (UniProt P35462). Nature of the test: Percent inhibition against Dopamine receptor D3 at 1 uM.
For test [4], the target named is Muscarinic acetylcholine receptor M3 (Homo sapiens) (UniProt P20309). Nature of the test: Percent inhibition against Muscarinic acetylcholine receptor M3 at 1 uM.
Test [5] deals with Equilibrative nucleoside transporter 1 (Homo sapiens) (UniProt Q99808). In words: Percent inhibition against ADO transporter at 1 uM nonselective.
Test [6] deals with D(1A) dopamine receptor (Homo sapiens) (UniProt P21728). The following applies: 1 uM.
D(1A) dopamine receptor (Homo sapiens), sequence (P21728 whole entry): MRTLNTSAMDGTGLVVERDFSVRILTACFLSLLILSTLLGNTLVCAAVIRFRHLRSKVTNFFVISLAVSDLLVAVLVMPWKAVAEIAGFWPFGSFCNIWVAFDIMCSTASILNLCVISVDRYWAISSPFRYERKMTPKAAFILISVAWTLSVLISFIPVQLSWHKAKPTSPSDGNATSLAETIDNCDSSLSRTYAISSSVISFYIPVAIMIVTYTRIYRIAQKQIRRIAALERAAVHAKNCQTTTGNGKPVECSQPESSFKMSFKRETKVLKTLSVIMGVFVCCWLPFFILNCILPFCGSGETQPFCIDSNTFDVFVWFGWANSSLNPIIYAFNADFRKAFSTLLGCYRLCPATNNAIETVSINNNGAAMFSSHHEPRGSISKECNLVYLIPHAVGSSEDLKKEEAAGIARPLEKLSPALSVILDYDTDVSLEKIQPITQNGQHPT
The target in test [7] is GABA-B receptor (Homo sapiens) (UniProt Q9UBS5+O75899). In words: Percent inhibition against GABA-B receptor at 1 uM. In kind it is protein-complex assay.
The target in test [8] is 5-hydroxytryptamine receptor 4 (Homo sapiens) (UniProt Q13639). In words: Percent inhibition against 5-hydroxytryptamine 4 receptor at 1 uM.
The target in test [9] is D(2) dopamine receptor (Homo sapiens) (UniProt P14416). Conditions: 1 uM.
D(2) dopamine receptor (Homo sapiens), sequence (P14416 whole entry): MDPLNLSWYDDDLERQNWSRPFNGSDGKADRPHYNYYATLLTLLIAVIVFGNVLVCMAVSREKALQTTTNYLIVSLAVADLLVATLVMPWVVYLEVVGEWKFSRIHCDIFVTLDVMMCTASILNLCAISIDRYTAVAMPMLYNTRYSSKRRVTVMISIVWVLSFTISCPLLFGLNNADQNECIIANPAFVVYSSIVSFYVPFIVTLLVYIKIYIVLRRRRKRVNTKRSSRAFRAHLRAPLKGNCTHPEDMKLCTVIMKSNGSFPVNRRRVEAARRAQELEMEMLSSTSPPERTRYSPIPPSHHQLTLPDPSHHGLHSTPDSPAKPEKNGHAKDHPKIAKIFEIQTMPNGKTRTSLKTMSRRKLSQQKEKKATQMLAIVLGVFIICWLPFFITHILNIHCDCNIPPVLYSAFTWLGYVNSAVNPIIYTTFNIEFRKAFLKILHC
In test [10] the target is 5-hydroxytryptamine receptor 5A (Homo sapiens) (UniProt P47898). The following applies: 1 uM.
5-hydroxytryptamine receptor 5A (Homo sapiens), sequence (P47898 whole entry): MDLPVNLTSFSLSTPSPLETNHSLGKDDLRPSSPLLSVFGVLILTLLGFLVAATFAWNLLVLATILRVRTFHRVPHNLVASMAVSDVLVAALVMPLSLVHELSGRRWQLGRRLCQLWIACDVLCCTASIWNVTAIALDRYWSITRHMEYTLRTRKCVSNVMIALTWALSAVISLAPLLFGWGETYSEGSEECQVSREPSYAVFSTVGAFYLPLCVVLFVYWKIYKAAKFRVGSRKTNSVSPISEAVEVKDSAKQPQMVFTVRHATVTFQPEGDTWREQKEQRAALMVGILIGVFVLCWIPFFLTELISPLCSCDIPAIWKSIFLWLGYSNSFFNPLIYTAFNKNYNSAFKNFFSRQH
The target in test [11] is Sodium-dependent serotonin transporter (Homo sapiens) (UniProt P31645). Conditions: 1 uM.
Sodium-dependent serotonin transporter (Homo sapiens), sequence (P31645 whole entry, looked up): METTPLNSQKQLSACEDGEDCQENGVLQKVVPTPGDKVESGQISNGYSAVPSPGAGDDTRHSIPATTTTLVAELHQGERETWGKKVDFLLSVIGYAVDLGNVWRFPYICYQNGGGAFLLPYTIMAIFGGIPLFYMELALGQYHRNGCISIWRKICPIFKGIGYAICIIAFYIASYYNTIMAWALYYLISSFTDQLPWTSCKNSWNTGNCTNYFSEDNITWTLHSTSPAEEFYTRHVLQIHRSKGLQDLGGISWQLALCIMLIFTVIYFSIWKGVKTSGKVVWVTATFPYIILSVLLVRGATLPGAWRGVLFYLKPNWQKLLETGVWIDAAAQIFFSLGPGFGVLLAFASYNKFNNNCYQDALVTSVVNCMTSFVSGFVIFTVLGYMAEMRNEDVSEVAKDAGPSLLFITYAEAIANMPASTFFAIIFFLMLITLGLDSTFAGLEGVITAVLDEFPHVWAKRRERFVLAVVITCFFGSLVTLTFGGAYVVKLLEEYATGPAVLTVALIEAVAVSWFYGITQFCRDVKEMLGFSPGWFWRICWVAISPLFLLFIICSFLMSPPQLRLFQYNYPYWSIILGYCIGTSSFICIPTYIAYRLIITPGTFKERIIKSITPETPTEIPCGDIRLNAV
In test [12] the target is T4, GABA-A receptor; anion channel (Homo sapiens) (UniProt P14867+P47870+P18507+P28472+P48169+Q99928+Q9UN88+P34903+O00591+O14764+Q8N1C3+P18505+P78334+P47869+P31644+Q16445). In words: Percent inhibition against central Benzodiazepine receptor at 1 uM. The test is classed as protein-complex assay.
Test [13] has as its target 5-hydroxytryptamine receptor 6 (Homo sapiens) (UniProt P50406). Nature of the test: Percent inhibition against 5-hydroxytryptamine 6 receptor at 1 uM.
Test [14] addresses Serotonin 3 (5-HT3) receptor (Homo sapiens) (UniProt P46098+A5X5Y0+O95264+Q70Z44+Q8WXA8). Conditions: 1 uM.
For test [15], the target named is Beta-2 adrenergic receptor (Homo sapiens) (UniProt P07550). In words: Percent inhibition against Beta-2 adrenergic receptor at 1 uM.
For test [16], the target named is T4, GABA-A receptor; anion channel (Homo sapiens). Nature of the test: (§2) Percent inhibition against GABAA receptor alpha at a compound concentration of 1 uM. The test is classed as protein-complex assay.
The target in test [17] is Muscarinic acetylcholine receptor M5 (Homo sapiens) (UniProt P08912). In words: Percent inhibition against Muscarinic acetylcholine receptor M5 at 1 uM.
Muscarinic acetylcholine receptor M5 (Homo sapiens), sequence (P08912 whole entry): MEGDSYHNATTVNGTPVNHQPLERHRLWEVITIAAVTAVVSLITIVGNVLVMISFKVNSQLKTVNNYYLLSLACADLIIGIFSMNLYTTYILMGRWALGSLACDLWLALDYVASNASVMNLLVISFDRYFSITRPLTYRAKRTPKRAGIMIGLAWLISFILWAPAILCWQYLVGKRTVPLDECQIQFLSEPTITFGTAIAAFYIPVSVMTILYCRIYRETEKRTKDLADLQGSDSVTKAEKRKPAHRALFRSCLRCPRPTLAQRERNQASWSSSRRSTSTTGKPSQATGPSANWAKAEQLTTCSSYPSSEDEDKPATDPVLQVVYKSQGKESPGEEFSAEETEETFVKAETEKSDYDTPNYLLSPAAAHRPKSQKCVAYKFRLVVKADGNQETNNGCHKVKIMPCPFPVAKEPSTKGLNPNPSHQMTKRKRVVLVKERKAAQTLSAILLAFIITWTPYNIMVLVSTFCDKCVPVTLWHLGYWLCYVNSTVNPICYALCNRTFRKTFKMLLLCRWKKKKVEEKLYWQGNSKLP
The target in test [18] is Muscarinic acetylcholine receptor M1 (Homo sapiens) (UniProt P11229). The following applies: at 1 µM.
Muscarinic acetylcholine receptor M1 (Homo sapiens), sequence (P11229 whole entry): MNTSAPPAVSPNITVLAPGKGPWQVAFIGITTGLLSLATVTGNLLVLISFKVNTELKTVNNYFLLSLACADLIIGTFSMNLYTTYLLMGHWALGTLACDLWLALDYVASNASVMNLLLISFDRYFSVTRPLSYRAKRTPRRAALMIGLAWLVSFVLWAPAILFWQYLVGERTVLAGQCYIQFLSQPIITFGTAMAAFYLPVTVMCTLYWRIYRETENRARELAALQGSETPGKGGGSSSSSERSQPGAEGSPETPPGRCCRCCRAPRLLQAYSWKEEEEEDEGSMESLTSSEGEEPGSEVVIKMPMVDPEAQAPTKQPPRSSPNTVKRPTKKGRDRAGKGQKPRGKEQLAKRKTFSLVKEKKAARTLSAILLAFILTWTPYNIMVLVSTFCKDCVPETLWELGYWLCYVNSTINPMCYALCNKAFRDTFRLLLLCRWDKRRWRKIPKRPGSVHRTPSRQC
For test [19], the target named is 5-hydroxytryptamine receptor 2C (Homo sapiens) (UniProt P28335). Nature of the test: Percent inhibition against 5-hydroxytryptamine 2C receptor at 1 uM.
Test [20] concerns the target 5-hydroxytryptamine receptor 2A (Homo sapiens) (UniProt P28223). Nature of the test: Percent inhibition against 5-hydroxytryptamine 2A receptor at 1 uM.
In test [21] the target is D(1B) dopamine receptor (Homo sapiens) (UniProt P21918). Nature of the test: Percent inhibition against Dopamine receptor D5 at 1 uM.
The target of test [22] is Muscarinic acetylcholine receptor M2 (Homo sapiens) (UniProt P08172). Conditions: 1 uM.
Muscarinic acetylcholine receptor M2 (Homo sapiens), sequence (P08172 whole entry): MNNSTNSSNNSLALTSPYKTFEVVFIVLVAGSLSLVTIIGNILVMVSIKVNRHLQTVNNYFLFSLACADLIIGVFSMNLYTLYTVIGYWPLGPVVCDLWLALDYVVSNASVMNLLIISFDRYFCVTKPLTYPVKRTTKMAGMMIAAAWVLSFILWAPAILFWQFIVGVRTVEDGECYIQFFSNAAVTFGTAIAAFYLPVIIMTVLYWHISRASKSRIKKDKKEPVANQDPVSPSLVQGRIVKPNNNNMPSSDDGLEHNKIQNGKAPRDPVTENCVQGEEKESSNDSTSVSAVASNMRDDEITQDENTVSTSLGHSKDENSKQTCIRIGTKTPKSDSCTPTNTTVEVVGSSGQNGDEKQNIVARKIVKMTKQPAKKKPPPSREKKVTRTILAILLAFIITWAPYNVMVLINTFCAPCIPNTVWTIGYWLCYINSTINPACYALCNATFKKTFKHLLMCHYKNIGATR
Test [23] has as its target Opioid receptors; mu/kappa/delta (Homo sapiens) (UniProt P41145+P41143+P35372). The following applies: at 1 µM.
The target in test [24] is 5-hydroxytryptamine receptor 1A (Homo sapiens) (UniProt P08908). In words: Percent inhibition against 5-hydroxytryptamine 1A receptor at 1 uM.
The species entered for test [25] is Homo sapiens. In words: Percent inhibition against P2X Purinergic receptor at 1 uM. The test is classed as tissue-based.
In test [26] the target is Adrenergic receptor alpha-1 (Homo sapiens) (UniProt P35348+P25100+P35368). Conditions: 1 uM.
The target in test [27] is D(4) dopamine receptor (Homo sapiens) (UniProt P21917). The following applies: 1 uM.
For test [28], the target named is Sodium-dependent noradrenaline transporter (Homo sapiens) (UniProt P23975). Nature of the test: Percent inhibition against Norepinephrine transporter at 1 uM nonselective.
The target in test [29] is Vesicular acetylcholine transporter (Homo sapiens) (UniProt Q16572). In words: (§3) Percent inhibition against Acetylcholine transporter at 1 uM.
For test [30], the target named is Sodium-dependent dopamine transporter (Homo sapiens) (UniProt Q01959). The following applies: 1 uM.
Sodium-dependent dopamine transporter (Homo sapiens), sequence (Q01959 whole entry): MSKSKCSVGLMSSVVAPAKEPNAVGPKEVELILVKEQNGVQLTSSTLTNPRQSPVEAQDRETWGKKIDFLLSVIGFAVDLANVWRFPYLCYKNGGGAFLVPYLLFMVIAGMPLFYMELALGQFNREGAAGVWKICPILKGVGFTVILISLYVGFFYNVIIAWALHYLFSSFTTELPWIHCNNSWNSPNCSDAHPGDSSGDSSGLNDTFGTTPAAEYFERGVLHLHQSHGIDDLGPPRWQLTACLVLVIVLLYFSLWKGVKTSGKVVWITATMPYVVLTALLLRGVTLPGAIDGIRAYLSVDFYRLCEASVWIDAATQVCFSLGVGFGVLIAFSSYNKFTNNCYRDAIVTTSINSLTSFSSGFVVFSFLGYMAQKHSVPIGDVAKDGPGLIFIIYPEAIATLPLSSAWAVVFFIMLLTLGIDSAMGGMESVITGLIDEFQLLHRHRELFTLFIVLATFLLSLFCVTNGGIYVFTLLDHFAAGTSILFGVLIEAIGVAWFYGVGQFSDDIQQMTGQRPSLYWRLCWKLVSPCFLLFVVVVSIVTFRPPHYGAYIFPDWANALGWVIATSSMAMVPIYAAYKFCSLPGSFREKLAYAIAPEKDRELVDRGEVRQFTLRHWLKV
Test [31] is filed under the species Homo sapiens. Described as §1.
For test [32], the target named is Glutamate receptor ionotropic AMPA (Homo sapiens) (UniProt P48058+P42263+P42262+P42261). Nature of the test: (§4) Percent inhibition against AMPA receptor at 1 uM. In kind it is protein-complex assay.
A further test addresses Adenosine receptor A3 (Homo sapiens, UniProt P0DMS8). In words: Binding affinity towards human Adenosine A3 receptor expressed in HEK293 cells using 0.1 nM [3H]AB-MECA. In kind it is cell-based.
Test [33] addresses T3, Glutamate [NMDA] receptor (Homo sapiens). Nature of the test: Percent inhibition against NMDA receptor at a compound concentration of 1 uM. The test is classed as protein-complex assay.
Test [34] deals with Beta-1 adrenergic receptor (Homo sapiens) (UniProt P08588). Conditions: 1 uM.
Test [35] deals with Muscarinic acetylcholine receptor M4 (Homo sapiens) (UniProt P08173). Nature of the test: Percent inhibition against Muscarinic acetylcholine receptor M4 at 1 uM.
Test [36] addresses Glutamate receptor ionotropic AMPA (Homo sapiens, UniProt P42261+P42262+P42263+P48058). The test is described as §4. In kind it is protein-complex assay.
The target of test [37] is GABA-A receptor; anion channel. Described as §2. In kind it is protein-complex assay, Homo sapiens.
The target of test [38] is Vesicular acetylcholine transporter (Homo sapiens, UniProt Q16572). The test is described as §3.

Adenosine receptor A2a, sequence (P29274 whole entry): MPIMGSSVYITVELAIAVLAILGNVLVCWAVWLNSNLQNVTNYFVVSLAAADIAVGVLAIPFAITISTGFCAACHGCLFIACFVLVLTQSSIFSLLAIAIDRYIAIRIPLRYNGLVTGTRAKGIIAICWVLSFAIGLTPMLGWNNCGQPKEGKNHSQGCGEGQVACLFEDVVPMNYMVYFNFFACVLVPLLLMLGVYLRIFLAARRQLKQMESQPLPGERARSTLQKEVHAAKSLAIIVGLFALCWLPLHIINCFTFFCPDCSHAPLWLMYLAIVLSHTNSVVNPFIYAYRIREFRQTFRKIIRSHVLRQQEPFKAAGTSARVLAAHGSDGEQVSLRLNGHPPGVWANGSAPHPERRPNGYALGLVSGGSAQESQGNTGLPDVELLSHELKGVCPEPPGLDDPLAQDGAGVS
5-hydroxytryptamine receptor 6 (Homo sapiens), sequence (P50406 whole entry): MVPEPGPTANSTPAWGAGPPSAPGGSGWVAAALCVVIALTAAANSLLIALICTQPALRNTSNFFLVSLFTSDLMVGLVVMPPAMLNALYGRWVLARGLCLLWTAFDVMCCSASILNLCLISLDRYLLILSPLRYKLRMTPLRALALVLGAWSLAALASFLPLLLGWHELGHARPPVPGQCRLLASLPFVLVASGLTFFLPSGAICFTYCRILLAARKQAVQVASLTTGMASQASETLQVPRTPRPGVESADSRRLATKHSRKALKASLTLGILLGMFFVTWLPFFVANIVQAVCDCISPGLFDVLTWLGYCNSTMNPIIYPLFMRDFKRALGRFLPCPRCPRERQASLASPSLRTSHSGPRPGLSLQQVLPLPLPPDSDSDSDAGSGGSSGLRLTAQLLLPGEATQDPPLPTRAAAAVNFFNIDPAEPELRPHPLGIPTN

Turning to `CCn1c(=O)c2c(nc(/C=C/c3ccc(OC)c(OC)c3)n2C)n(CC)c1=O` [ISTRADEFYLLINE], the Ki at Adenosine receptor A1 was greater than 1000 nM.

Consider `O=c1nc2[nH]c3ccccc3nc-2c(=O)[nH]1` [ALLOXAZINE], for which the values for the Ki at Adenosine receptor A2a and on Adenosine receptor A1 were 935 nM and greater than 100000 nM, respectively.

Take `CCCc1nc(N)c2nc(-n3nccn3)n(C)c2n1`: the Ki was 18 nM at Adenosine receptor A2b, 83.7 nM at Adenosine receptor A2a and 266 nM at Adenosine receptor A1.

`Cn1c(-n2nccn2)nc2c(N)ncnc21`: the affinity on Adenosine receptor A1 corresponds to a Ki of 0.4 nM.

`Cn1c(-n2nccn2)nc2c(N)nccc21`: the results for the Ki on Adenosine receptor A2b, on Adenosine receptor A2a and at Adenosine receptor A1 were 518 nM, 51.6 nM and 1060 nM, respectively.

`Nc1ncnc2c1ncn2[C@H]1C[C@H](O)[C@@H](COP(O)(=S)OP(=O)(O)OP(=O)(O)O)O1` (some centres undefined): in test [1], the inhibition is 22%.

Regarding `CCCCc1nc(N)c2nc(-n3nccn3)n(C)c2n1` [ST1535], the inhibition was less than 10% in test [2]; less than 10% in test [3]; less than 10% in test [4]; 24% in [5]; less than 10% in test [6]; less than 10% in test [7]. In addition, the inhibition in [8], in test [9], in test [10], in test [11], in [12] and in test [13] was less than 10% each time. Besides, the inhibition in test [14], in [15], in test [16], in test [17], in test [18] and in test [19] was less than 10% each time. Also, the inhibition (in test [20]; in test [21]; in [22]; in test [23]; in test [24]; in the test listed under Homo sapiens [25]) was less than 10% each time. For the same compound, the inhibition (in [26]; in test [27]; in [28]; in test [29]; in test [30]; in the test filed under Homo sapiens [31]) was less than 10% throughout. Also, the inhibition in test [32], in test [33], in test [34] and in test [35] was less than 10% in each case. For the same compound, the Ki was 352 nM on Adenosine receptor A2b, 6.6 nM at Adenosine receptor A2a, 71.8 nM on Adenosine receptor A1 and greater than 1000 nM on Adenosine receptor A3.

In the case of `CCCCCc1nc(N)c2nc(-n3nccn3)n(C)c2n1`, the inhibition was less than 10% in [2]; less than 10% in [3]; less than 10% in [4]; 34% in test [5]; less than 10% in test [6]; less than 10% in test [7]. For the same compound, the inhibition in test [8], in test [9], in [10], in test [11], in test [12] and in [13] was less than 10% throughout. Besides, the inhibition in [14], in [15], in [16], in test [17], in test [18] and in test [19] was less than 10% in each case. The inhibition (in test [20]; in test [21]; in [22]; in test [23]; in test [24]; in the test filed under Homo sapiens [25]) was less than 10% each time. The inhibition (in [26]; in test [27]; in test [28]; in [29]; in [30]; in the test listed under Homo sapiens [31]) was less than 10% throughout. Also, the inhibition in [32], in test [33], in test [34] and in test [35] was less than 10% in each case. Besides, affinity at Adenosine receptor A3 was put at a Ki of 760 nM.

For the compound `Cc1nc(N)c2nc(-n3nccn3)n(C)c2n1`, the Ki on Adenosine receptor A1 is 10.4 nM.

As for `CC(C)c1nc(N)c2nc(-n3nccn3)n(C)c2n1`, the results for the Ki on Adenosine receptor A2a and at Adenosine receptor A1 were 481 nM and 2270 nM, respectively.

`Nc1ncnc2c1ncn2[C@@H]1O[C@H](COP(=O)(O)CP(=O)(O)OP(=O)(O)O)[C@@H](O)[C@H]1O` [DIPHOSPHOMETHYLPHOSPHONIC ACID ADENOSYL ESTER] came in with an inhibition in test [1] of 14%.

Turning to `Cc1cc2c(nc(-n3nccn3)n2C)c(N)n1`, the Ki at Adenosine receptor A2b is 140 nM; at Adenosine receptor A2a it was 120 nM; on Adenosine receptor A1 it was 340 nM.

In the case of `O=C(O)[C@@H]1C[C@H](CP(=O)(O)O)CCN1` [SELFOTEL], the IC50 in [36] came to 967 nM.

Compound `NCc1cc(=O)[nH]o1` [MUSCIMOL] registered an IC50 in [37] of 16 nM.

Regarding `C[N+]1(C)CCOC(O)(c2ccc(-c3ccc(C4(O)C[N+](C)(C)CCO4)cc3)cc2)C1` (centres undefined), the IC50 in test [38] was found to be 12 nM. That is a double-digit nanomolar value.
